Experimental findings from publication PMC11541931, “The structure and function of P5A-ATPases” (Nature Communications, 2024) are described below.

The target in the test is T1, CtSpf1 (Thermochaetoides thermophila, UniProt G0S4Z4).
T1 construct: gene CTHT_0032200; full length, last two C-terminal arginines removed; C-terminal TEV site-GGGGS-GFP-His10, tag kept; made in S. cerevisiae PAP1500; in nanodiscs
The test is described as follows: cryo-EM structure, […] A. To be noted: 1 mM ADP with 2 mM AlF4-, Mg2+; MSP1E3D1 nanodisc, pH 7.5; nucleotide-binding site, E1P-ADP state.

T1 sequence (G0S4Z4 entry or part of it): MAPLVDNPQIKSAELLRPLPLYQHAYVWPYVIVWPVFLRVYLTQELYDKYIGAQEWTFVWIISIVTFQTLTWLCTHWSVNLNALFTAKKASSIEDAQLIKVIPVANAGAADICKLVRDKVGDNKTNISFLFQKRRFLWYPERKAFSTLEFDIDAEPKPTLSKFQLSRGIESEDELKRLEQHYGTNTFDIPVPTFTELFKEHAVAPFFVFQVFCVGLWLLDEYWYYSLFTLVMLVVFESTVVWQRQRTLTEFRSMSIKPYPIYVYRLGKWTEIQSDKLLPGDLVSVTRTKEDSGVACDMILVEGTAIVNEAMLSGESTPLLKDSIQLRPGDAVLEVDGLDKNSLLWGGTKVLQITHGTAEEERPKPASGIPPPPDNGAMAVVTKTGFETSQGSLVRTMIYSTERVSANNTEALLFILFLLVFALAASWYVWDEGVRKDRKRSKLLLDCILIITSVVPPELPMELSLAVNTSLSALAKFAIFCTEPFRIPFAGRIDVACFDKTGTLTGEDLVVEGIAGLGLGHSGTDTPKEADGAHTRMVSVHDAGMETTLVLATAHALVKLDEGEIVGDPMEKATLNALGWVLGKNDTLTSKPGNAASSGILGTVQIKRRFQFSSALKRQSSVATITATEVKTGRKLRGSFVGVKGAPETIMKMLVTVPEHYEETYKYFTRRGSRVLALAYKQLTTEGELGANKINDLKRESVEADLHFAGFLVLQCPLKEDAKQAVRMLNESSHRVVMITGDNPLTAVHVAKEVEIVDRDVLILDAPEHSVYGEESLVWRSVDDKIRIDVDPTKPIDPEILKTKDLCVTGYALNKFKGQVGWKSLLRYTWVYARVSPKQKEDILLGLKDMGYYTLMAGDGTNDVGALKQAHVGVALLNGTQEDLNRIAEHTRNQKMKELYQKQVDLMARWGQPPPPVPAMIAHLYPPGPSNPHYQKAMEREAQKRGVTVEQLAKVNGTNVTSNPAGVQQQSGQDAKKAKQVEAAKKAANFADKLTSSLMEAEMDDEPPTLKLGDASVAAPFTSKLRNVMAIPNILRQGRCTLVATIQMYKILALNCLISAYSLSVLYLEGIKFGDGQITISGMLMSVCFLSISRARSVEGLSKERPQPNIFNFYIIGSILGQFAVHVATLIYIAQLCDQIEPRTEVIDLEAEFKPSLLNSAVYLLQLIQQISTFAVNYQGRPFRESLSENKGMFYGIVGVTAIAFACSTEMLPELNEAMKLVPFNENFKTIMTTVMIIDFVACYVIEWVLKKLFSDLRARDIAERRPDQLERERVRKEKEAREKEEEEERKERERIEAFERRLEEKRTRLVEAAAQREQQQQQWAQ

Take `Nc1ncnc2c1ncn2[C@@H]1O[C@H](COP(=O)(O)OP(=O)(O)O)[C@@H](O)[C@H]1O` [ADP]: the “cryo-EM structure, 3.4 A” value was “We retrieved two separate maps with ADP-AlF4^− bound”.
